Measured values: patent US9365540B2, “Benzimidazole derivatives as MCH receptor antagonists” (Takeda Pharmaceutical Company Limited, priority 2012, dated 2016)

How the values were obtained:
[1] = biological target: T1, human MCH receptor 1 (MCHR1) (Homo sapiens, UniProt Q99705); assay: human MCH receptor 1 (MCHR1) competitive binding assay with [125I]-MCH(4-19); conditions: test compound 0.1 μM, human MCHR1-expressing CHO cell membrane fraction, read-out: Binding inhibition rate % (0.1 μM)
T1 construct: expressed in transfected cells; host or cells: CHO cell clone 57 (membrane fraction)
Outline: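 Membranes from CHO cells expressing human MCHR1 incubated with [125I]-MCH(4-19) and test compound in 20 mM Tris-HCl pH 7.5/5 mM EDTA with protease inhibitors, 1 hr at room temperature. Bound radioactivity collected on PEI-treated GF/C filters; % inhibition at 0.1 μM compound, nonspecific binding set with cold MCH(1-19).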

human MCHR1 = biological target: T2, human MCHR1 (Homo sapiens, UniProt Q99705); assay: MCH receptor 1 antagonistic activity, Ca2+ mobilization assay; format: cell-based; conditions: CHO, test compound 0.1 μM; human MCHR1-expressing CHO cells (clone #4); ligand MCH(4-19) 2 nM; read-out: Inhibitory rate % (0.1 μM)
T2 construct: expressed in transfected cells; host or cells: CHO dhfr- cells, clone #4
Outline: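 CHO dhfr− cells stably expressing human MCHR1 (clone #4) were used in a fluorometric Ca2+ mobilization assay. Test compounds were run at 0.1 μM, with antagonism expressed as percent inhibition.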

[2] = test system: male diet-induced obese F344/Jcl rats; assay: Anorectic effect in male diet-induced obese F344/Jcl rats; format: in vivo, rat; conditions: Rattus norvegicus, po, 48 h, 5 mg/mL suspension at 2 mL/kg, two administrations, food intake for 2 days vs control group, read-out: Food intake suppression rate (%)
Experimental: Evaluation of Anorectic Effect Using Male Diet-Induced Obese F344/Jcl Rats
Male diet-induced obese F344/Jcl rats (44-50 weeks old) fed with a high-fat diet (D12451: Research Diets) from 5 weeks old were used. From before the start of experiment, the rats were singly housed, given a powder high-fat diet (D12451M: Research Diets), and habituated to oral administration with tap water. The food intake from the evening of the day before the start of experiment to the next morning was measured, and the rats were grouped based on both the food intake and the body weight of the previous day. In the evening of the day of the start of experiment and the next day, 0.5% methylcellulose solution was orally administered to the control group, and 0.5% methylcellulose suspension (5 mg/mL) of the test compound was orally administered to the compound administration group at 2 mL/kg (6 per group for both control group and compound administration group). The food intake for 2 days from the initial administration was measured. The food intake inhibition rate of each compound administration group to the control group was calculated.

HepG2 cells = assay: PLsis (phospholipidosis) inducing potential, NBD-PE uptake; format: cell-based; conditions: 24 hr exposure, relative value to 10 μM Amiodarone, maximum value per unit concentration
Experimental: Evaluation of PLsis Inducing Potential
DMEM medium, L-glutamine, penicillin-streptomycin, pyruvic acid, and N-(7-nitrobenz-2-oxa-1,3-diazol-4-yl)-1,2-hexadecanoyl-sn-glycero-3-phosphoethanolamine triethylammonium salt (NBD-PE) were purchased from Invitrogen Corporation. As bovine serum albumin (BSA), a product of Thermo Trace Ltd. (Melbourne, Australia) was used, and as Amiodarone, a product of ICN (Costa Mesa, Calif.) was used. A test compound was used in the form of a 10 mM DMSO solution.
FBS was added at a final concentration of 5 vol % to DMEM medium supplemented with L-glutamine, pyruvic acid and penicillin-streptomycin and subjected to the experiment. Culture was performed using 5% carbon dioxide gas-95% air as a gas phase in a CO2 incubator at 37° C. HepG2 cells were suspended in a culture medium at 50×10^4 cells/mL, plated in a 96 well plate at 50 μL/well and precultured for 24 hr. After preculture, the culture medium was removed, a culture medium containing 60 μM NBD-PE was added at 50 μL/well, and a culture medium containing 0.6 μM or 20 μM test compounds were each added at 50 μL/well to HepG2 cells, and the cells were cultured for 24 hr. As a positive control, Amiodarone was used at a final concentration of 10 μM.
After exposure to the test compound for 24 hr, the fluorescence intensity (Ex. 485 nm, Em. 538 nm) of NBD-PE uptaken by the cells was measured by a fluorometer. The measurement value with addition of 0 μM test compound solution was subtracted as a blank, a relative value to the measurement 5 value with addition of 10 μM Amiodarone was calculated, and the maximum value per unit concentration of the test compound was obtained as a phospholipidosis (PLsis) inducing potential.

T2 sequence (Q99705 whole entry): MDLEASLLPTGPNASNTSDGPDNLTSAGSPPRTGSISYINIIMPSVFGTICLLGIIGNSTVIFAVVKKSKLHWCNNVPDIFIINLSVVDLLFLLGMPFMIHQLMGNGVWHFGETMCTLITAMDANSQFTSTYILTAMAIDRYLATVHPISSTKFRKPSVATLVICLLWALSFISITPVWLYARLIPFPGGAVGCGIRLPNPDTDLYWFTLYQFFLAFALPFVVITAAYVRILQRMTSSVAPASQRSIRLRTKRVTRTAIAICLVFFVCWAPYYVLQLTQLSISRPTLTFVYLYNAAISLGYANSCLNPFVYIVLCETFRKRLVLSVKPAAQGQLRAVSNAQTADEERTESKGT
T1 sequence (Q99705 whole entry): as above

Structure (SMILES)	inhibition at 0.1 µM [1]	inhibition at 0.1 µM (human MCHR1)	inhibition in vivo at 5000 µg/mL, 10 mg/kg [2]	PLsis inducing potential (HepG2 cells)
Cc1c(C2CC2)nc2ccc(-n3ccc(OCc4ccc(F)cc4)cc3=O)cn12 [Example 1, 1-(2-Cyclopropyl-3-methylimidazo[1,2-a]pyridin-6-yl)-4-((4-fluorobenzyl)oxy)pyridin-2(1H)-one]	91%	98%	19.5%	2.5
Cc1c(C2CC2)nc2ccc(-n3ccc(OCc4ccc(Cl)cc4)cc3=O)cn12 [Example 3, 4-((4-Chlorobenzyl)oxy)-1-(2-cyclopropyl-3-methylimidazo[1,2-a]pyridin-6-yl)pyridin-2(1H)-one]	88%	99%	29.6%	2.4
Cc1c(C2CC2)nc2ccc(-n3ccc(OCc4ccccc4)cc3=O)cn12 [Example 11, 4-(Benzyloxy)-1-(2-cyclopropyl-3-methylimidazo[1,2-a]pyridin-6-yl)pyridin-2(1H)-one]	81%	101%	21.8%	2.0
Cn1c(C2CC2)nc2ccc(-n3ccc(OCc4ccc(Cl)cn4)cc3=O)cc21 [Example 112, 4-((5-Chloropyridin-2-yl)methoxy)-1-(2-cyclopropyl-1-methyl-1H-benzimidazol-6-yl)pyridin-2(1H)-one]	70%	48%	25.5%	1.6
Cn1c(C2CC2)nc2ccc(-n3ccc(OCc4ccc(F)c(F)c4)cc3=O)cc21 [Example 115, 1-(2-Cyclopropyl-1-methyl-1H-benzimidazol-6-yl)-4-((3,4-difluorobenzyl)oxy)pyridin-2(1H)-one]	82%		32%	1.8
Cn1c(C2CC2)nc2ccc(-n3ccc(OCc4ccc(Cl)s4)cc3=O)cc21 [Example 121, 4-((5-Chloro-2-thienyl)methoxy)-1-(2-cyclopropyl-1-methyl-1H-benzimidazol-6-yl)pyridin-2(1H)-one]	95%	96%	36.5%	1.7
Cn1c(C2CC2)nc2ccc(-n3ccc(OCc4csc(Cl)c4)cc3=O)cc21 [Example 143, 4-((5-Chloro-3-thienyl)methoxy)-1-(2-cyclopropyl-1-methyl-1H-benzimidazol-6-yl)pyridin-2(1H)-one]	91%		39.4%	1.6
Cc1c(C2CC2)nc2ccc(-n3ccc(OCc4ccc(F)s4)cc3=O)cn12 [Example 156, 1-(2-Cyclopropyl-3-methylimidazo[1,2-a]pyridin-6-yl)-4-((5-fluorothiophen-2-yl)methoxy)pyridin-2(1H)-one]	48%	90%		2.0
CCc1nc2ccc(-n3ccc(OCc4csc(Cl)c4)cc3=O)cc2n1C [Example 226, 4-((5-Chloro-3-thienyl)methoxy)-1-(2-ethyl-1-methyl-1H-benzimidazol-6-yl)pyridin-2(1H)-one]	89%	106%		2.1
